Measured values: PMC11796312, “Multifunctional, Fluorene‐Based Modulator of Cholinergic and GABAergic Neurotransmission as a Novel Drug Candidate for Palliative Treatment of Alzheimer's Disease” (Angewandte Chemie (International Ed. in English), 2024)
Values joined by “and” are separate entries in the source; they are usually repeats but may differ in a detail not shown here. Identical values can stand only once. “Also recorded” adds a separate entry of the source. Like-named read-outs stand apart in the source and are kept apart here.

Tests used:
[1] = Metabolic stability in human liver microsomes; type: in vitro ADME; conditions: 120 min incubation with HLMs
Procedure: The in silico prediction of the most probable sites of metabolism was done by MetaSite 6.0.1 software (Molecular Discovery Ltd, Hertfordshire, UK). The metabolic pathways determination in vitro was performed by 120 min compounds incubation with human liver microsomes (HLMs) purchased from Sigma-Aldrich, St. Louis, MO, USA. The reactions were conducted in 10 mM Tris–HCl buffer (pH 7.4) at 37 °C in the presence of NADPH Regeneration System (Promega, Madison, WI, USA). UPLC/MS analyses were done using the Waters ACQUITY TQD system with the TQ Detector (Waters, Milford, USA).
UPLC chromatograms of the reaction mixtures and the proposed structures of metabolites.
Figure S46. UPLC spectra after 120 min incubation of compound 6 with HLMs. 89.57% of the parent compound remained in the reaction mixture. One metabolite (M1, m/z = 460.30) […]
(1 picture or pasted object on this page, not shown here)

mice [2] = experiment: Elevated plus maze (EPM); type: in vivo; conditions: vs control
Procedure: Animals and housing conditions
In all pharmacodynamic in vivo experiments, except for the Barnes maze (BM) task, adult male Albino Swiss (CD-1) mice weighing between 18 and 22 g and purchased from the Animal Breeding Farm of the Faculty of Pharmacy, Jagiellonian University Medical College were used. In BM task, C57BL/6J mice of the same weight (Animalab, Poland) were used.
Animals were housed in cages (10 mice per cage) at a constant temperature of 22 ± 2 °C, humidity of 55 ± 10%, and a light/dark (12:12) cycle (lights on at 7 AM). Before the experiments, the animals had unlimited access to food and water. Specified conditions for the maintenance of mice were ensured throughout the experiments, including tree bedding (Transwior, Poland) and cage enrichment (tunnels, nesting material, wooden igloos, etc.). For the behavioral test, the mice were selected randomly; each group consisted of 7-12 mice. The experiments were performed between 9 AM and 3 PM. After in vivo tests, the animals were […]
Ethical approval statement
The procedures for the maintenance and treatment of laboratory animals were approved by the 1st Local Ethics Committee of the Jagiellonian University in Krakow (Approvals No. […]
(§1) of the closed arms. […] The following parameters were measured in this test: time spent in open arms of the EPM device and the number of entries to open arms. […]

SIM-A9 cells = experiment: LC-MS determination of total MDA, SIM-A9; type: cell-based, mouse; conditions: all time intervals
mice [3] = experiment: Locomotor activity test; type: in vivo; conditions: 10 and 30 mg/kg i.p.
Procedure: Effect on depressive-like behavior - forced swim test
The experiment was carried out according to Porsolt et al.[48] with small modifications.
Briefly, mice were individually placed in a glass cylinder (25 cm high, 10 cm in diameter) containing 11 cm of water maintained at 23–25 °C and were left therein for 6 min. A mouse was regarded as immobile when it remained floating on the water, making only small movements to keep its head above it. The total duration of immobility was measured during the final 4 min of a 6-min test session.
Effect on anxiety - four-plate test
The four-plate apparatus (FPT; Bioseb, France) consists of a cage (25 × 18 × 16 cm) that is floored with four rectangular metal plates (11 × 8 cm). The plates are separated from one another by a 4 mm gap, and they are connected to an electroshock generator. […] The number of punished crossings was counted […]
as §1
crossings) were counted during the next 60 min of the test. […]
For the analysis of data obtained in the in vivo tests GraphPad Prism software (v. 9.0, CA, USA) was used. Numerical results from the tests were expressed as mean ± standard error of the mean (SEM). […]
In this fear-motivated task the effect of 6 on scopolamine-induced cognitive dysfunction was assessed. […]

[4] = molecular target: T1, human serotonin 5-HT6 receptor (Homo sapiens, UniProt P50406); experiment: cAMP 5-HT6 functional assay; type: cell-based
T1 construct: host or cells: 1321N1
T1 sequence (P50406 whole entry): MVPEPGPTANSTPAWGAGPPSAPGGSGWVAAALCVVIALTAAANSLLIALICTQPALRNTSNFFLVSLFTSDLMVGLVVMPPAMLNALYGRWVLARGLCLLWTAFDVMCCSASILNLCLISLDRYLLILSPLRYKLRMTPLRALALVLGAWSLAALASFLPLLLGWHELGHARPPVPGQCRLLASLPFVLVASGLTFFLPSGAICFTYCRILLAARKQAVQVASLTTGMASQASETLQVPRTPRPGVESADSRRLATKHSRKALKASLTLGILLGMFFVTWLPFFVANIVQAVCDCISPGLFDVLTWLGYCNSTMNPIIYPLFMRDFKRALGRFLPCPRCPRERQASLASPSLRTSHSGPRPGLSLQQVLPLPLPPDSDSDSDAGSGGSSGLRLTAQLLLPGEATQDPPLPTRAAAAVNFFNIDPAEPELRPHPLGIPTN
Procedure: Functional assays for 5-HT6 receptor
Test compounds were dissolved in dimethyl sulfoxide (DMSO) at a concentration of 10 mM.
Serial dilutions were prepared in a 96-well microplate in assay buffer, and 8 concentrations
were tested. For the 5-HT6, adenylyl cyclase activity was monitored using cryopreserved
cells were resuspended in stimulation buffer (HBSS, 5 mM HEPES, 0.5 IBMX, and 0.1%
BSA at pH 7.4) at 2x10^5 cells/ml. The same volume (10 μl) of cell suspension was added to
the tested compounds. Samples were loaded onto a white opaque half-area 96-well
reference agonist for the 5-HT6 receptor. The agonist and antagonist were added
simultaneously. Cell stimulation was performed for 30 minutes at room temperature. After
incubation, cAMP measurements were performed with homogeneous TR-FRET immunoassay
using the LANCE Ultra cAMP kit (PerkinElmer, USA). The volume of 10 μl of EucAMP
Tracer Working Solution and 10 μl of ULight-anti-cAMP Tracer Working Solution were
added, mixed, and incubated for 1 h. The TR-FRET signal was read on an EnVision
microplate reader (PerkinElmer, USA). IC 50 and EC 50 were determined by nonlinear
regression analysis using GraphPad Prism 9.0 software.

O[C@H](CNCC1CC1)[C@H](Cc1ccccc1)NC1c2ccccc2-c2ccccc21 [Compound 6]
parent compound remaining [1]: 90% and 89.57% | time spent in open arms (mice [2]; 0.1 and 1 mg/kg i.p.): prolonged time spent in open arms; also recorded: significant prolongation of time spent in the open arms | number of open arm entries (mice [2]; 1 and 10 mg/kg i.p.): increased the number of open arm entries; also recorded: increased number of entries into the open arms | increase in intracellular level of MDA (SIM-A9 cells): no significant increase | locomotor activity (mice [3]): None of these doses significantly affected the locomotor activity | EC50 [4]: 2.42 µM | Emax ([4]; read-out: 5-HT6 agonist mode E max % [10^-5 M]): 41% | Emax ([4]; read-out: 5-HT6 antagonist mode E max %): 3%
